According to PMC6960228, “Ethoxysanguinarine, a Novel Direct Activator of AMP-Activated Protein Kinase, Induces Autophagy and Exhibits Therapeutic Potential in Breast Cancer Cells” (Frontiers in Pharmacology, 2020):

What was measured:
[1] = test system: MCF-7, MDA-MB-231, and MDA-MB-436 cells; experiment: Trypan blue exclusion assay; type: cell-based, human; conditions: dose- and time-dependent
Description: Cells were seeded into 96-well plate and pre-cultured for 24 h, then treated with Eth for 24. Cell cytotoxicity was determined by MTT assay. The absorbance was measured at 490 nm by automated microplated reader (BioTek Instruments, Inc., Winooski, VT, USA), and the cell death rate was calculated as followed: inhibition rate (%) = (average A490 of the control group − average A490 of the experimental group)/(average A490 of the control group − average A490 of the blank group) × 100%. Cell viability was estimated by trypan blue dye exclusion.

seven BC cell lines = experiment: MTT assay, summary over BC cell lines; type: cell-based; conditions: Homo sapiens, range over BC cell lines
Description: Human BC cell lines MCF-7, MDA-MB-231, DMA-MB-436, SK-BR3, MDA-MB-468, MDA-MB-453, and MDA-MB-435S and non-tumorigenic MCF-10A human mammary epithelial cells were obtained from American Type Culture Collection (ATCC; Manassas, VA, USA). MCF-7, SK-BR3, MDA-MB-231, and MDA-MB-436 cells were maintained in Dulbecco’s modified Eagle’s medium (DMEM; high glucose; Gibco; Thermo Fisher Scientific, Inc., Waltham, MA, USA) supplemented with 10% fetal bovine serum (FBS; HyClone; Logan, UT, USA) and antibiotics and incubated in a humidified atmosphere with 5% CO2 at 37°C. MDA-MB-468, MDA-MB-453, and MDA-MB-435S cells were maintained in Leibovitz’s L-15 (Gibco) supplemented with 10% FBS and antibiotics and incubated in a humidified atmosphere without CO2 at 37°C. MCF-10A cells were maintained in DMEM/F12 medium containing 5% horse serum (HS), insulin ([…]), epidermal growth factor (EGF, 20 ng/mL), choleratoxin ([…]), hydrocortisone ([…]), penicillin (50 U/mL), and streptomycin (50 U/mL), and incubated in a humidified atmosphere with CO2 at 37°C.
Cells were seeded into 96-well plate and pre-cultured for 24 h, then treated with Eth for 24. Cell cytotoxicity was determined by MTT assay. […]

[2] = test system: ACC, Glut1, Glut3, and Glut4 in BC cells; experiment: Western blot of energy metabolism proteins; type: cell-based, human
Description: Cells were lysed in radioimmunoprecipitation assay buffer containing 50 mM Tris, pH 8.0, 150 mM NaCl, 0.1% SDS, 0.5% sodium deoxycholate, 1% NP-40, 1 mM DTT, 1 mM NaF, 1 mM sodium orthovanadate, 1 mM phenylmethylsulfonyl fluoride (PMSF; Sigma-Aldrich; Merck KGaA), and 1% protease inhibitors cocktail (EMD Millipore, Billerica, MA, USA). Protein concentration was determined using the Bradford method. Equal amounts of sample (25 µg) were separated by SDS-PAGE (8–12% gels). Electrophoresed proteins were then transferred onto polyvinylidene fluoride membranes (EMD Millipore, Billerica, MA, USA). The membranes were blocked with 5% skimmed milk in Tris-buffered saline at room temperature for 1 h. Following blocking, membranes were incubated overnight at 4°C with primary antibodies and then rinsed with Tris-buffered saline with Tween 20. […]

`CCOC1c2c(ccc3c2OCO3)-c2ccc3cc4c(cc3c2N1C)OCO4` (stereo not shown) [Eth, Ethoxysanguinarine] was tested. Which viable cells [1] did it give?
Its viable cells is “rapidly reduced viable”.

What about the IC50 (seven BC cell lines) of the same compound?
The IC50 was 2.63 to 9.15 µM.

What about the “expression and activation of ACC” value [2] of the same compound?
Its value is “no significant effect”.

What about the “expression of Glut1, Glut3, and Glut4” value ([2]; MCF-7 or MDA-MB-231 cells, 24 h) of the same compound?
Its value is “downregulated”.
